Measured values reported in patent US20220339178A1, “COMPOSITIONS AND METHODS FOR COGNITIVE PROTECTION OF POLLINATORS AGAINST PESTICIDES” (priority 2019, published 2022).

Legend:
[1] = system: Honeybees (Apis mellifera scutellata); assay: Classical conditioning of the proboscis extension response (PER): learning, 24 h memory retention, latency; flavonoids vs imidacloprid; type: in vivo; conditions: for memory retention, proportion difference relative to Control bees (Adjusted Wald test): conditioned PER after 24 h; for latency of response during learning acquisition relative to Control bees / learning scores relative to Control bees: honey bees; for learning scores relative to Control bees: 8 trials, score 0-7, quercetin 6.6 mM or rutin 1 mM once a day for three days, imidacloprid 1.16 nM 20 μL 1.5 h before training
Method: Honeybees (Apis mellifera scutellata) were captured from established hives at the Apiary of the Pontificia Universidad Javeriana (Bogota, Colombia). Foragers were collected while leaving to forage between 8:00 am and 10:00 am (Matsumoto et al., J Neurosci Methods. 211(1):159-67. 2012). Bees were maintained in individual plastic chambers under laboratory conditions (photoperiod followed seasonal pattern; relative humidity: 63%; temperature: 18° C.). Food was provided once a day in a volume of 20 μL and varied in composition according to experimental treatments.
Control (2M sugar water): fed once a day (20 μL) for three consecutive days;
Quercetin (6.6 mM quercetin (Sigma-Aldrich: Q4951)-sucrose-water with DMSO 1% (Sigma-Aldrich: D8418): fed once a day for three days;
Rutin (1 mM rutin (Sigma-Aldrich R5143)-sucrose-water with DMSO 1%: fed once a day for three days;
Imidacloprid (1.16 nM Imidacloprid (Bayer)-sucrose-water: fed as a single dose (20 μL) 1.5 h before training;
Quercetin-Imidacloprid: bees received the quercetin treatment (see above) and were fed Imidacloprid 1.5 h before training; and
Rutin-Imidacloprid: bees received the rutin treatment (see above) and were fed Imidacloprid 1.5 h before training.
Bees were trained using classical conditioning of the proboscis extension response (PER), a broadly used method to study learning and memory in bees. Briefly, bees received a soft current of clean air for 15 seconds to allow bees to accommodate. Then a soft current of 1-hexanol (Sigma-Aldrich: 471402) was injected for 10 seconds. Six seconds after injection of 1-hexanol, one of the antennae was stimulated with sucrose water (50% w/w), which leads to the reflexive extension of the proboscis, and the bee was allowed to drink for 4 seconds. Thus, the reward and the stimulus overlapped for four seconds. This sequence, recognized as a training trial, was repeated eight times. Time was determined using a metronome (2 Hz). Memory retention was tested 24 hours after the eight training trials. […] 12 bees were trained each session. Training was conducted by an experimenter blind to treatment.
Learning was assessed from the total number of conditioned responses across the eight trials. Thus, each bee received a learning score between 0-7 (by definition, bees cannot show a learned response at the first trial). After 24 h, memory retention was assessed as the response to the presentation of 1-hexanol without a sucrose reward. Latency of response was quantified as the time between the onset of 1-hexanol stimulation and the onset of a response that led to a full extension of proboscis. Only bees being responsive to sucrose water across all training trials and the memory retention test were considered for analyses. Learning scores were compared across treatments using a Mann-Whitney test as data were not normally distributed (Shapiro-Wilk W test for the hypothesis that the data is from a Normal distribution: P<0.05 for all treatments). Comparisons of the learning score of bees across all treatments relative to Control bees were conducted using the Steel method adjusted as one or two-tailed tests. Additional post hoc comparisons were performed between Imid and Quer+Imid bees and between Imid and Rut+Imid bees. Memory retention was compared across groups using an overall Chi-Square test and independent tests for planned comparisons were performed using adjusted Wald tests for proportions. In all cases error due to multiple comparisons was controlled using the False Discovery Rate one stage method and adjusted p-values (q-values) are presented (Benjamini & Hochberg, Journal of the Royal Statistical Society. Series B (Methodological), 57(1):289-300. 1995; Pike, N., Methods in Ecology and Evolution, 2(3):278-282. 2011). All analyses were conducted using JMP v.14.0 (SAS Institute Inc). […]

[2] = system: bumblebee Bombus impatiens; assay: Olfactory conditioning of PER in bumblebees: ad libitum rutin vs acute imidacloprid or fipronil; type: in vivo; conditions: for learning score relative to Control bees: score 0-10, ad libitum 1 μM rutin three days, 5 nM imidacloprid or 6 nM fipronil 20 μL 2 hours before training
Method: One colony of the bumblebee Bombus impatiens (Koppert Inc) was kept in laboratory conditions. Bees received pollen inside the nests and foraged to a 1M sugar-water feeder outside of the nest. Bees were collected while on the feeder and iced anesthetized to then be randomly assigned to one of two plastic containers where ad libitum self-administration of one of two solutions was allowed to 10 bees: i) 1 M sucrose water or ii) 1 μM Rutin (Sigma-Aldrich R5143) diluted in 1M sucrose water. On the night of the third day, the feeder was removed to starve the bees. On the fourth day, the bees were iced anesthetized and yolked restrained in plastic pipettes. Bees were maintained in the pipettes for the rest of the experiment (two days). One hour after harnessing, the bees were randomly assigned to one of three treatments: i) 20 μL of 1M sucrose water, ii) 20 μL of 1M sucrose water+5 nM imidacloprid, iii) 20 μL of 1M sucrose water+6 nM fipronil. Thus, overall bees belonged to one of six treatments:
Control: ad libitum sucrose water for three days and 20 μL of sucrose water before training
Rutin: ad libitum 1 μM Rutin for three days and 20 μL of sucrose water before training
Imid: ad libitum sucrose water for three days and 20 μL of 5 nM Imidacloprid in 1M sugar water 2 hours before training
Rutin+Imid: ad libitum 1 μM Rutin for three days and 20 μL of 5 nM Imidacloprid in 1M sugar water 2 hours before training
Fipronil: ad libitum sucrose water for three days and 20 μL of 5 nM fipronil in 1M sucrose water 2 hours before training
Rutin+Fipronil: ad libitum […] Rutin for three days and 20 μL of 6 nM fipronil in 1M sugar water 2 hours before training
All bees were blind-trained using olfactory conditioning of the proboscis extension response (PER). Briefly, bees were exposed to a presentation of 1-nonanol (Sigma-Aldrich) for 10 s. After 7 s of the onset of the odor presentation, the antenna was stimulated with 1.5 M sugar-water to elicit the PER. Following the PER, the bee was allowed to drink sugar-water for 3 s. Each paired presentation was considered a training trial and each individual received eleven training trials with an average intertrial interval of 10 minutes. After training, all bees were fed 20 μL of 1M sugar water and maintained in plastic boxes for 24 h until the retention test. […] Twenty-four hours after the last training trial the bees were presented with the conditioned odor for 10 s.
Learning for each individual was quantified as the number of conditioned PER responses across the trials. Thus, for each bee a learning score between zero and ten (0-10) was recorded.
Multiple comparisons were then run comparing learning score relative to Control bees using a non-parametric one or two-tailed Steel Method depending upon predictions. These comparisons informed us about the predicted impairment produced by the insecticides, the predicted innocuous effect of the flavonoid and the potential level of protection. Error due to multiple comparisons was controlled using the False Discovery Rate method (FDR-two stage sharpened method). In all cases corrected p-values (q-values) are presented.
Memory retention was quantified as a nominal variable (yes/no). Data were compared across treatments using a Chi-square test, followed by multiple comparisons of all treatments vs. Control. Error due to multiple comparisons was controlled using the FDR as indicated above. In all cases corrected p-values (q values) are presented.
Latency was quantified as a continuous variable between 0.5 s and 10 s. Data were compared across treatments using an ANOVA following a Log transformation to normalize the distribution (Shapiro-Wilk W Test after log transformation: p>0.05 for all treatments for the null hypothesis that data is from a normal distribution), followed by multiple comparisons between all treatments and the Control group. Error due to multiple comparisons was controlled using the FDR method as indicated above. […]

Structure (SMILES)	odds of remembering for Control bees relative to Imid bees ([1]; 24 h retention) [times]	probability of exhibiting a conditioned PER after 24 h relative to Control bees ([1]; 24 h retention)	memory retention, proportion difference relative to Control bees (Adjusted Wald test) [1]	latency of response during learning acquisition relative to Control bees [1]	learning scores relative to Control bees [1]	bees exhibiting a conditioned PER after 24 h ([1]; retention test 24 h after training) [%]	odds of remembering for Control bees relative to insecticide bees ([2]; 24 h retention) [times]	proportion difference Control minus insecticide group for a PER response (Adjusted Wald test) ([2]; 24 h retention)	decision-making ratio (latency of response / learning score) relative to Control bees ([2]; bumblebees)	bees exhibiting a conditioned response after 24 h ([2]; bumblebees, 24 h retention test) [%]	learning score relative to Control bees ([2]; bumblebees)	learning scores relative to bees in the Imid group ([1]; honey bees prophylactically fed flavonoid for three days, then imidacloprid 1.5 h before training)
O=[N+]([O-])NC1=NCCN1Cc1ccc(Cl)nc1 [Imidacloprid]	9.1	significantly lower	0.49	not significantly different from Control	significantly lower	20	12	0.51	significant increase	13	significantly lower	–
C[C@@H]1O[C@@H](OC[C@H]2O[C@@H](Oc3c(-c4ccc(O)c(O)c4)oc4cc(O)cc(O)c4c3=O)[C@H](O)[C@@H](O)[C@@H]2O)[C@H](O)[C@H](O)[C@H]1O [Rutin]	–	–	−0.14	not significantly different from Control	significantly higher learning scores	–	–	–	–	–	not significantly different	significantly higher learning scores
